{"source": "patent US20240173273A1", "about": "(priority 2021, published 2024)", "type_in_all_cases": "cell-based", "key": {"[1]": {"tested_on": "inflammatory response induced by SARS-COV-2", "test": "Inflammatory and immune-sensing gene expression in infected Calu-3a cells", "details": "data not shown"}, "[2]": {"tested_on": "HECT E3 ligases, ACE2, TMPRSS2", "test": "Expression of HECT E3 ligases, ACE2 and TMPRSS2 in Vero E6 and Calu-3a cells (RT-qPCR)"}, "[3]": {"tested_on": "SARS-COV-2"}, "[4]": {"tested_on": "SARS-COV-2", "remark": "listed apart in the source"}, "[5]": {"tested_on": "SARS-COV-2", "test": "microbe, parasite or virus in culture"}}}
{"smiles": "CC(C)(CO)[C@@H](O)C(=O)NCCC(=O)NCCSSCCNC(=O)CCNC(=O)[C@H](O)C(C)(C)CO", "note": "[pantethine, (2R,2′ R)—N,N′-(3,12-Dioxo-7,8-dithia-4,11-diazatetradecane-1,14-diyl)bis(2,4-dihydroxy-3,3-dimethylbutanamide)]", "values": [{"measurement": "inflammatory response induced by SARS-COV-2", "setting": "[1]", "result": "reduced"}, {"measurement": "ACE2 and TMPRSS2 expression", "setting": "[2]", "result": "no significant effect"}, {"measurement": "HECT E3 ligases expression", "setting": "[2]", "result": "no effects"}, {"measurement": "infection-induced increase of TMPRSS2 expression", "setting": "[2]", "result": "inhibited"}, {"measurement": "HECT E3 ligase-increase induced by SARS-CoV-2 infection", "setting": "[2]; infected cells in vitro, data not shown", "result": "decreased"}, {"measurement": "expression of the viral Spike and Nucleocapsid proteins within infected cells", "setting": "[3]", "result": "reduce significantly"}, {"measurement": "infection of Calu-3a cells by SARS-COV-2", "setting": "[4]", "result": "reduced significantly and dose dependently"}, {"measurement": "infection of Vero E6 cells by SARS-COV-2", "setting": "[5]", "result": "reduced significantly and dose dependently"}, {"measurement": "inhibition at 100 µM", "setting": "[5]; Severe acute respiratory syndrome coronavirus 2, Vero C1008, 72 h, 100 μM, read-out: inhibition of the replication of SARS-COV-2 (Spike protein staining)", "result": "~76", "unit": "%"}, {"measurement": "inhibition at 1000 µM", "setting": "[5]; Severe acute respiratory syndrome coronavirus 2, Vero C1008, 72 h, 1000 μM, read-out: inhibition of the replication of SARS-COV-2 (Spike protein staining)", "result": "~98", "unit": "%"}]}
